Like-named read-outs stand apart in the source and are kept apart here.
Columns and labels:
[1] = system: NQO1 mRNA in BEAS-2B cells; assay: Beas2B NQO1 mRNA cell based assay; parameters: species or system human; details: 24 h compound treatment, increase in NQO1 mRNA vs vehicle (0.1% DMSO), read-out: EC50
Method: Beas2B NQO1 mRNA Cell Based Assay
The up regulation of the NRF2 mediated gene NAD(P)H:quinone acceptor oxidoreductase 1 (NQO1) was measured using the following assay method: BEAS-2B cells (ATCC CRL-9609) were plated in 96-well clear plates at 20,000 cells/well in 75 μL of cell culture media and incubated overnight (37° C., 5% CO2). On day 2, 25 μL of compound or controls were added to the cells for 24 h. On day 3, the medium was aspirated from the plate and the Cells-to-CT™ 1-Step TaqMan® Kit (Ambion A25603) was used to perform expression analysis directly from cultured cells without RNA purification according to the manufacturer's instructions.
Briefly, cells were washed with ice cold PBS and 22.5 μL of room-temperature DNase/Lysis solution was added to the cells and incubated at room temperature for 5 minutes. To stop the reaction, 2.25 μL of stop solution was added to the cell lysate. The samples were diluted 1:5 using nuclease free water and 2.5 μL transferred into the PCR plate. Real-time PCR was performed using the C-1000 Thermal Cycler (Bio-Rad) using human beta actin as the internal control. The cDNA was amplified with a specific primer for NQO1 using the 1-step RT-PCR master mix (Ambion Cells-to-CT™ 1-Step TaqMan® Kit A25603). The primers/probes sets that were used for amplification of cDNA were obtained from TaqMan Gene Expression Assays (Applied Biosystems). The comparative CT (ΔΔCT) relative quantification method was used to calculate the relative mRNA level of the target gene NQO1 as described in the Applied Biosystems Chemistry Guide.

[2] = target: human KEAP1 (N-term, residues 321-609) (Homo sapiens, UniProt Q14145); assay: biochemical;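 note: fluorescence polarization competition assay of Kelch domain binding to NRF2, 12-point 1:3 dilution series from 10 µM, read after 1 h at room temperature, floor 10 nM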
Chain of human KEAP1 (N-term, residues 321-609) (Q14145 321-609): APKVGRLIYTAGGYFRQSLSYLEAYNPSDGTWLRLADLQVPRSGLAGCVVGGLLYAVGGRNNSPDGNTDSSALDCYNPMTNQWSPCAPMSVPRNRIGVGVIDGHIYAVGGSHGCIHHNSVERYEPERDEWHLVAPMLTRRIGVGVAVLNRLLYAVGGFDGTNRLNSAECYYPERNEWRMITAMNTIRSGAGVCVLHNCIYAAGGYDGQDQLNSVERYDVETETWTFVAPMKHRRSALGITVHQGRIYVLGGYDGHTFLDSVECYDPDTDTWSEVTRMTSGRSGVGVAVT
Method: Biological Assays KEAP1 Kelch Fluorescence Polarization (FP) Assay Method
Inhibition of the Kelch domain-NRF2 interaction was determined using a fluorescence polarization-based competition assay in a black 384-well microplate. Compounds were tested at a starting concentration of 10 μM serially diluted 1:3 to generate a 12-point dose response curve on the Biomek FX robot.
After 1 h at room temperature, fluorescence polarization (excitation 470 nm/emission 530 nm) was measured using an Envision plate reader. IC50 values were determined by fitting the data to a four parameter logistic fit using XLfit or XE Runner within ActivityBase.

CC(Oc1ccc(Br)c2c1[C@@H](CN1Cc3ccccc3C1=O)N(C(=O)[C@@H]1CCCC[C@@H]1C(=O)O)CC2)c1cn(C(C)C)nn1 (single isomer, unassigned) [Example 46]
EC50 ([1]; Homo sapiens, BEAS-2B, 24 h): 60 nM
IC50 [2]: 37 nM

CC(Oc1ccc(Br)c2c1[C@@H](CN1Cc3ccccc3C1=O)N(C(=O)[C@@H]1CCCC[C@@H]1C(=O)O)CC2)c1cn(C(C)C)nn1 (single isomer, unassigned) [Example 47]
EC50 [1]: 76 nM
IC50 [2]: 68 nM

CC1CCN(C[C@@H]2c3c(OCc4cn(C(C)C)nn4)ccc(Br)c3CCN2C(=O)[C@@H]2CCCC[C@@H]2C(=O)O)C1=O (single isomer, unassigned) [Example 73]
EC50 [1]: 130 nM
IC50 [2]: 16 nM

CC1CCN(C[C@@H]2c3c(OCc4cn(C(C)C)nn4)ccc(Br)c3CCN2C(=O)[C@@H]2CCCC[C@@H]2C(=O)O)C1=O (single isomer, unassigned) [Example 74]
EC50 [1]: 22 nM
IC50 [2]: 6.8 nM

Cn1nnc(COc2ccc(Cl)c3c2[C@@H](CN2CC(C(F)(F)F)CC2=O)N(C(=O)[C@@H]2CCCC[C@]2(C)C(=O)O)CC3)c1C(F)F (single isomer, unassigned) [Example 212]
EC50 ([1]; Homo sapiens, BEAS-2B, 24 h): 1.9 nM
IC50 [2]: 5.7 nM

Cn1nnc(COc2ccc(Cl)c3c2[C@@H](CN2CC(C(F)(F)F)CC2=O)N(C(=O)[C@@H]2CCCC[C@]2(C)C(=O)O)CC3)c1C(F)F (single isomer, unassigned) [Example 213]
EC50 [1]: 2.2 nM
IC50 [2]: 5.2 nM

Cn1nnc2c1CC(Oc1ccc(Cl)c3c1[C@@H](CN1CC4(CC4)CC1=O)N(C(=O)[C@@H]1CCCC[C@]1(C)C(=O)O)CC3)C2 (single isomer, unassigned; isomer 1) [Example 215]
EC50 [1]: 550 nM
IC50 [2]: 71 nM

Cn1nnc2c1CC(Oc1ccc(Cl)c3c1[C@@H](CN1CC4(CC4)CC1=O)N(C(=O)[C@@H]1CCCC[C@]1(C)C(=O)O)CC3)C2 (single isomer, unassigned; isomer 2) [Example 216]
EC50 [1]: 110 nM
IC50 [2]: 6.4 nM

Cc1cc(C(=O)NCCOc2cccc3c2[C@@H](CN2C(=O)c4ccccc4C2=O)N(C(=O)[C@@H]2CCCC[C@@H]2C(=O)O)CC3)no1 [Example 1, (1S,2R)-2-((S)-1-((1,3-Dioxoisoindolin-2-yl)methyl)-8-(2-(5-methylisoxazole-3-carboxamido)ethoxy)-1,2,3,4-tetrahydroisoquinoline-2-carbonyl)cyclohexanecarboxylic acid]
EC50 ([1]; Homo sapiens, BEAS-2B, 24 h): 850 nM
IC50 [2]: 12 nM

O=C(NCCOc1cccc2c1[C@@H](CN1C(=O)c3ccccc3C1=O)N(C(=O)[C@@H]1CCCC[C@@H]1C(=O)O)CC2)c1nc2ccccc2o1 [Example 2, (1S,2R)-2-((S)-8-(2-(Benzo[d]oxazole-2-carboxamido)ethoxy)-1-((1,3-dioxoisoindolin-2-yl)methyl)-1,2,3,4-tetrahydroisoquinoline-2-carbonyl)cyclohexane-1-carboxylic acid]
EC50 ([1]; Homo sapiens, BEAS-2B, 24 h): 150 nM
IC50 [2]: 12 nM

CC(=O)N1CC[C@H](Oc2cccc3c2[C@@H](CN2C(=O)c4ccccc4C2=O)N(C(=O)[C@@H]2CCCC[C@@H]2C(=O)O)CC3)C1 [Example 3, (1S,2R)-2-((S)-8-(((S)-1-Acetylpyrrolidin-3-yl)oxy)-1-((1,3-dioxoiso-indolin-2-yl)methyl)-1,2,3,4-tetrahydroisoquinoline-2-carbonyl)cyclohexane-1-carboxylic acid]
EC50 ([1]; Homo sapiens, BEAS-2B, 24 h): 120 nM
IC50 [2]: 5.6 nM

Cc1cc(C(=O)N2CC[C@H](Oc3cccc4c3[C@@H](CN3C(=O)c5ccccc5C3=O)N(C(=O)[C@@H]3CCCC[C@@H]3C(=O)O)CC4)C2)no1 [Example 4, (1S,2R)-2-((S)-1-((1,3-Dioxoisoindolin-2-yl)methyl)-8-(((S)-1-(5-methylisoxazole-3-carbonyl)pyrrolidin-3-yl)oxy)-1,2,3,4-tetrahydroisoquinoline-2-carbonyl)cyclohexane-1-carboxylic acid]
EC50 ([1]; Homo sapiens, BEAS-2B, 24 h): 13 nM
IC50 [2]: 9 nM

O=C(O)[C@H]1CCCC[C@H]1C(=O)N1CCc2c(Br)ccc(O[C@H]3CCN(C(=O)c4cncs4)C3)c2[C@H]1CN1C(=O)c2ccccc2C1=O [Example 5, (1S,2R)-2-((S)-5-bromo-1-((1,3-dioxoisoindolin-2-yl)methyl)-8-(((S)-1-(thiazole-5-carbonyl)pyrrolidin-3-yl)oxy)-1,2,3,4-tetrahydroisoquinoline-2-carbonyl)cyclohexane-1-carboxylic acid]
EC50 ([1]; Homo sapiens, BEAS-2B, 24 h): 2.5 nM
IC50 [2]: 6.1 nM

O=C(O)[C@H]1CCCC[C@H]1C(=O)N1CCc2cccc(O[C@H]3CCN(C(=O)c4cncs4)C3)c2[C@H]1CN1C(=O)c2ccccc2C1=O [Example 6, (1S,2R)-2-((S)-1-((1,3-dioxoisoindolin-2-yl)methyl)-8-(((S)-1-(thiazole-5-carbonyl)pyrrolidin-3-yl)oxy)-1,2,3,4-tetrahydroisoquinoline-2-carbonyl)cyclohexane-1-carboxylic acid]
EC50 ([1]; Homo sapiens, BEAS-2B, 24 h): 78 nM
IC50 [2]: 5.6 nM

Cc1ncc(C(=O)N2CC[C@H](Oc3cccc4c3[C@@H](CN3C(=O)c5ccccc5C3=O)N(C(=O)[C@@H]3CCCC[C@@H]3C(=O)O)CC4)C2)s1 [Example 7, (1S,2R)-2-((S)-1-((1,3-dioxoisoindolin-2-yl)methyl)-8-(((S)-1-(2-methylthiazole-5-carbonyl)pyrrolidin-3-yl)oxy)-1,2,3,4-tetrahydroisoquinoline-2-carbonyl)cyclohexane-1-carboxylic acid]
EC50 ([1]; Homo sapiens, BEAS-2B, 24 h): 48 nM
IC50 [2]: 6.2 nM

O=C(O)[C@H]1CCCC[C@H]1C(=O)N1CCc2c(Cl)ccc(OCc3noc4ccccc34)c2[C@H]1CN1CCCC1=O [Example 72, (1S,2R)-2-((S)-8-(Benzo[d]isoxazol-3-ylmethoxy)-5-chloro-1-((2-oxopyrrolidin-1-yl)methyl)-1,2,3,4-tetrahydroisoquinoline-2-carbonyl)cyclohexane-1-carboxylic acid]
EC50 ([1]; Homo sapiens, BEAS-2B, 24 h): 2.8 nM

O=C1CCCN1C[C@@H]1c2c(OCc3noc4ccccc34)ccc(Cl)c2CCN1C(=O)[C@@H]1CCCC[C@@H]1c1nn[nH]n1 [Example 81, 1-(((S)-2-((1R,2S)-2-(2H-tetrazol-5-yl)cyclohexane-1-carbonyl)-8-(benzo[d]isoxazol-3-ylmethoxy)-5-chloro-1,2,3,4-tetrahydroisoquinolin-1-yl)methyl)pyrrolidin-2-one]
EC50 ([1]; Homo sapiens, BEAS-2B, 24 h): 260 nM

C[C@@H]1CC(=O)N(C[C@@H]2c3c(OCc4nnn(C)c4C(F)(F)F)ccc(Cl)c3CCN2C(=O)[C@H]2CCCC[C@]2(C)C(=O)O)C1 [Example 133, (1S,2S)-2-((S)-5-chloro-1-(((R)-4-methyl-2-oxopyrrolidin-1-yl)methyl)-8((1-methyl-5-(trifluoromethyl)-1H-1,2,3-triazol-4-yl)methoxy)-1,2,3,4-tetrahydroisoquinoline-2-carbonyl)-1-methylcyclohexane-1-carboxylic acid]
EC50 ([1]; Homo sapiens, BEAS-2B, 24 h): 20 nM

C[C@]1(C(=O)O)CCCC[C@H]1C(=O)N1CCc2c(Cl)cc(F)c(OCc3nnn4c3CCCC4)c2[C@H]1CN1CC2(CC2)CC1=O [Example 144, (1S,2R)-2-((S)-5-chloro-7-fluoro-1-((6-oxo-5-azaspiro[2.4]heptan-5-yl)methyl)-8-((4,5,6,7-tetrahydro-[1,2,3]triazolo[1,5-a]pyridin-3-yl)methoxy)-1,2,3,4-tetrahydroisoquinoline-2-carbonyl)-1-methylcyclohexane-1-carboxylic acid]
EC50 ([1]; Homo sapiens, BEAS-2B, 24 h): 0.022 nM

Cn1nnc(COc2ccc(Cl)c3c2[C@@H](CN2CCCC2=O)N(C(=O)[C@@H]2CCCC[C@]2(C)c2nn[nH]n2)CC3)c1C(F)F [Example 151, 1-(((S)-5-chloro-8-((5-(difluoromethyl)-1-methyl-1H-1,2,3-triazol-4-yl)methoxy)-2-((1R,2S)-2-methyl-2-(2H-tetrazol-5-yl)cyclohexane-1-carbonyl)-1,2,3,4-tetrahydroisoquinolin-1-yl)methyl)pyrrolidin-2-one]
EC50 ([1]; Homo sapiens, BEAS-2B, 24 h): 16 nM

Cn1nnc(COc2ccc(Cl)c3c2[C@@H](CN2CC4(CC4)CC2=O)N(C(=O)[C@@H]2CCCC[C@@H]2C(=O)O)CC3)c1C(F)F [Example 197, (1S,2R)-2-((S)-5-Chloro-8-((5-(difluoromethyl)-1-methyl-1H-1,2,3-triazol-4-yl)methoxy)-1-((6-oxo-5-azaspiro [2.4]heptan-5-yl)methyl)-1,2,3,4-tetrahydroisoquinoline-2-carbonyl) cyclohexane-1-carboxylic acid]
EC50 ([1]; Homo sapiens, BEAS-2B, 24 h): 0.51 nM

Cn1nnc(COc2ccc(Cl)c3c2[C@@H](CN2CC4(CC4)CC2=O)N(C(=O)[C@@H]2CCCC[C@@H]2c2nnn[nH]2)CC3)c1C(F)F [Example 202, 5-(((S)-2-((1R,2S)-2-(1H-tetrazol-5-yl)cyclohexane-1-carbonyl)-5-chloro-8-((5-(difluoromethyl)-1-methyl-1H-1,2,3-triazol-4-yl)methoxy)-1,2,3,4-tetrahydroisoquinolin-1-yl)methyl)-5-azaspiro[2.4]heptan-6-one]
EC50 ([1]; Homo sapiens, BEAS-2B, 24 h): 79 nM
